Results reported in patent publication US20190136254A1, “ALS Inhibitor Herbicide Tolerant Mutant Plants” (BASF SE, priority 2013, published 2019).

Legend:
AHAS protein WT = AHAS protein WT (Arabidopsis thaliana, UniProt P17597); test: biochemical; settings: for pI50 WT: AHAS WT
Procedure: (§1) Bacteria are grown at 37° C. in LB-medium containing 100 mg/l carbenicillin and 25 mg/l canamycin, induced with 1 mM isopropyl-β-D-thiogalactopyranoside at an OD600 of 0.6, cultivated for 16 hours at 18° C. and harvested by, e.g., centrifugation. Bacterial pellets are resuspended in 100 mM sodium phosphate buffer pH 7.0 containing 0.1 mM thiamine-pyrophosphate, 1 mM MgCl2, and 1 μM FAD at a concentration of 1 gram wet weight per 25 ml of buffer and disrupted by, e.g., sonification. The crude protein extract obtained after centrifugation is used for ALS activity measurements.
(§2) ALS protein can be extracted from leaves or tissue cultures, such as B. napus or B. juncea leaves, or B. napus or B. juncea tissue cultures as described by Ray (Plant Physiol, 1984, 75:827-831). An ALS assays can be carried out in 96-well microtiter plates using a modification of the procedure described by Ray (1984): The reaction mixture contains 20 mM potassium phosphate buffer pH 7.0, 20 mM sodium pyruvate, 0.45 mM thiamine-pyrophosphate, 0.45 mM MgCl2, 9 μM FAD. ALS enzyme and various concentrations of ALS inhibitors can be mixed in a final volume of 90 μl. Assays can be initiated by adding enzyme and the assays can be terminated after 75 min incubation at 30° C. by the addition of 40 μl 0.5 M H2SO4.

[1] = molecular target: AHAS protein comprising the P197S mutation (Arabidopsis thaliana, UniProt P17597, P197S); test: biochemical; settings: for Resistance Factor P197S: AHAS P197S relative to WT; for pI50 P197S: AHAS P197S
Sequence of AHAS protein comprising the P197S mutation (P17597 56-670 P197S): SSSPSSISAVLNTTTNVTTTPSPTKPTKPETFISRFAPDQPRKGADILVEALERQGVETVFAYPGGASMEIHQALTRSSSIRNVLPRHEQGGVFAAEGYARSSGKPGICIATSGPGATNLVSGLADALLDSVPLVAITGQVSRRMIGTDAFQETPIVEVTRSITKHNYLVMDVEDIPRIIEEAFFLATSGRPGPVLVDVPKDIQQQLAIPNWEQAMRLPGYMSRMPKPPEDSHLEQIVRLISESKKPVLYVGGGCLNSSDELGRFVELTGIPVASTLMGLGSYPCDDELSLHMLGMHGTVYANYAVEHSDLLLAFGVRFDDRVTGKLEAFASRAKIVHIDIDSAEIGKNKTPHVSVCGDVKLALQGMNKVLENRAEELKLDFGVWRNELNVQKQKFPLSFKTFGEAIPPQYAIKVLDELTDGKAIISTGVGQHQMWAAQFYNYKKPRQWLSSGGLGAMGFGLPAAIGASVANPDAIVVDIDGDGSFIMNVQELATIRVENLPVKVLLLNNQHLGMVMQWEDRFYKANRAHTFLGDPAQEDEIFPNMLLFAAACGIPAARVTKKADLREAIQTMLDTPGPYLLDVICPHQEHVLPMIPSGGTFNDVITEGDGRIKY
Procedure: as §1, §2

[2] = molecular target: AHAS protein comprising the W574L mutation (Arabidopsis thaliana, UniProt P17597, W574L); test: biochemical; settings: for Resistance Factor W574L: AHAS W574L relative to WT; for pI50 W574L: AHAS W574L
Sequence of AHAS protein comprising the W574L mutation (P17597 56-670 W574L): as the sequence (P17597 56-670 P197S) above, with S142P, W519L counted along it
Procedure: as §1, §2

[3] = molecular target: AHAS protein comprising both the P197S and W574L mutation in one ALS protein (Arabidopsis thaliana, UniProt P17597, P197S/W574L); format: biochemical; settings: both mutations in one ALS protein; for Resistance Factor P197S-W574L (in one protein): relative to WT
Sequence of AHAS protein comprising both the P197S and W574L mutation in one ALS protein (P17597 56-670 P197S/W574L): as the sequence (P17597 56-670 P197S) above, with W519L counted along it
Procedure: as §1, §2

[4] = molecular target: mixture of two ALS proteins, one comprising the P197S and the other the W574L mutation (Arabidopsis thaliana, UniProt P17597, P197S/W574L); test: biochemical; settings: for Resistance Factor P197S & W574L (mixture): calculated mixture of two ALS proteins, relative to WT; for pI50 P197S & W574L (mixture): mixture of two ALS proteins, calculated as described in WO 2013/127766
Sequence of mixture of two ALS proteins, one comprising the P197S and the other the W574L mutation (P17597 56-670 P197S/W574L): as the sequence (P17597 56-670 P197S) above, with W519L counted along it

[5] = tested on: wild-type (WT) oilseed rape; test: Field test of visible phytotoxicity upon herbicide spraying, wild-type; format: in vivo, Brassica napus; settings: g ai/ha: imazamox 40, bispyribac-sodium 50, propoxycarbazone-sodium 70, mesosulfuron-methyl 60, pyroxsulam 12.5 + cloquintocet-mexyl 37.5, each + rapeseed oil methylated 366.5, 0%=no phytotoxic effects, 100%=all plants killed
Text: (§3) Seeds of spring oilseed rape homozygous for HETO132 and HETO134, and seeds of spring oilseed rape homozygous for HETO133 and HETO 134 were sown in a field according to typical practical agricultural methods. Several ALS inhibitor herbicides were applied to the oilseed rape plants by using specific spray equipment for small plot applications. […] The use of all herbicides in the test lead to a clearly better tolerance of the spring oilseed rape lines homozygous for HETO132 and HETO134 as compared to a standard variety not comprising ALS alleles according to the invention.

[6] = tested on: oilseed rape homozygous for HETO133 and HETO134; test: Field test of visible phytotoxicity upon herbicide spraying, HETO133-HETO134; format: in vivo, Brassica napus; settings: g ai/ha: imazamox 40, bispyribac-sodium 50, propoxycarbazone-sodium 70, mesosulfuron-methyl 60, pyroxsulam 12.5 + cloquintocet-mexyl 37.5, each + rapeseed oil methylated 366.5, 0%=no phytotoxic effects, 100%=all plants killed
Text: as §3

[7] = tested on: oilseed rape homozygous for HETO132 and HETO134; test: Field test of visible phytotoxicity upon herbicide spraying, HETO132-HETO134; format: in vivo, Brassica napus; settings: g ai/ha: imazamox 40, bispyribac-sodium 50, propoxycarbazone-sodium 70, mesosulfuron-methyl 60, pyroxsulam 12.5 + cloquintocet-mexyl 37.5, each + rapeseed oil methylated 366.5, 0%=no phytotoxic effects, 100%=all plants killed
Text: as §3

Sequence of AHAS protein WT (P17597 56-670): as the sequence (P17597 56-670 P197S) above, with S142P counted along it

Structure (SMILES) | IC50 (AHAS protein WT) | IC50 [1] | Resistance Factor P197S [1] | IC50 [2] | Resistance Factor W574L [2] | pI50 P197S-W574L (in one protein) [3] | Resistance Factor P197S-W574L (in one protein) [3] | IC50 [4] | Resistance Factor P197S & W574L (mixture) [4] | further results
COc1cc(OC)nc(NC(=O)NS(=O)(=O)c2ncccc2C(F)(F)F)n1 [Flazasulfuron, flazasulfuron] | 0.000794 µM | 0.1 µM | 120 | 3.16 µM | 3802 | <4 | >120226 | 0.631 µM | 794 | –
CCS(=O)(=O)c1nc2ccccn2c1S(=O)(=O)NC(=O)Nc1nc(OC)cc(OC)n1 [Sulfosulfuron, sulfosulfuron] | 0.02 µM | 39.8 µM | 1848 | > 100 µM | >4641 | <4 | >4641 | 251 µM | 10000 | –
COC(=O)c1ccc(CNS(C)(=O)=O)cc1S(=O)(=O)NC(=O)Nc1nc(OC)cc(OC)n1 [Mesosulfuron-methyl, mesosulfuron-methyl] | – | – | 65 | – | 25770 | – | >64730 | – | 794 | –
COc1cc(OC)nc(NC(=O)NS(=O)(=O)c2ncccc2C(=O)N(C)C)n1 [Nicosulfuron, nicosulfuron] | 0.158 µM | 1 µM | 6 | > 100 µM | >607 | <4 | >607 | 31.6 µM | 251 | –
CCCOc1nn(C(=O)[N-]S(=O)(=O)c2ccccc2C(=O)OC)c(=O)n1C.[Na+] [PROPOXYCARBAZONE-SODIUM, propoxycarbazone-sodium] | – | – | – | – | – | – | – | – | – | Percentage phytotoxicity 9 DAA wild-type [5]: 76.7%; Percentage phytotoxicity 16 DAA wild-type [5]: 97%; Percentage phytotoxicity 24 DAA wild-type [5]: 97.7%; Percentage phytotoxicity 9 DAA HETO133-HETO134 [6]: 53.3%; Percentage phytotoxicity 16 DAA HETO133-HETO134 [6]: 82.7%; Percentage phytotoxicity 24 DAA HETO133-HETO134 [6]: 76.7%; Percentage phytotoxicity 9 DAA HETO132-HETO134 [7]: 40%; Percentage phytotoxicity 16 DAA HETO132-HETO134 [7]: 36.7%; Percentage phytotoxicity 24 DAA HETO132-HETO134 [7]: 11.7%
COC(=O)c1ccc(I)cc1S(=O)(=O)[N-]C(=O)Nc1nc(C)nc(OC)n1.[Na+] [Iodosulfuron-methy-sodium, iodosulfuron-methyl-sodium] | – | – | 139 | – | 555 | – | >35030 | – | 316 | –
COc1ncc(F)c2nc(S(=O)(=O)Nc3c(F)cccc3F)nn12 [Florasulam, florasulam] | – | – | 28 | – | 1738 | <4 | >6918 | – | 200 | pI50 WT (AHAS protein WT): 7.8; pI50 P197S [1]: 6.4; pI50 W574L [2]: 4.6; pI50 P197S & W574L (mixture) [4]: 5.5
COCc1cnc(C2=NC(C)(C(C)C)C(=O)N2)c(C(=O)O)c1 (centres unmarked) [Imazamox, imazamox] | 3.98 µM | 5.01 µM | 1 | > 100 µM | >22 | <4 | >22 | 79.4 µM | 20 | Percentage phytotoxicity 9 DAA wild-type [5]: 73.3%; Percentage phytotoxicity 16 DAA wild-type [5]: 98%; Percentage phytotoxicity 24 DAA wild-type [5]: 99%; Percentage phytotoxicity 9 DAA HETO133-HETO134 [6]: 6.7%; Percentage phytotoxicity 16 DAA HETO133-HETO134 [6]: 10%; Percentage phytotoxicity 24 DAA HETO133-HETO134 [6]: 0%; Percentage phytotoxicity 9 DAA HETO132-HETO134 [7]: 6.7%; Percentage phytotoxicity 16 DAA HETO132-HETO134 [7]: 8.7%; Percentage phytotoxicity 24 DAA HETO132-HETO134 [7]: 0%
COc1cc(OC)nc(Oc2cccc(Oc3nc(OC)cc(OC)n3)c2C(=O)O)n1 [Bispyribac-sodium, bispyribac-sodium] | 0.0158 µM | 0.0794 µM | 4 | 7.94 µM | 447 | <4 | >5623 | 0.794 µM | 40 | Percentage phytotoxicity 9 DAA wild-type [5]: 76.7%; Percentage phytotoxicity 16 DAA wild-type [5]: 98.3%; Percentage phytotoxicity 24 DAA wild-type [5]: 100%; Percentage phytotoxicity 9 DAA HETO133-HETO134 [6]: 56.7%; Percentage phytotoxicity 16 DAA HETO133-HETO134 [6]: 88.3%; Percentage phytotoxicity 24 DAA HETO133-HETO134 [6]: 92.7%; Percentage phytotoxicity 9 DAA HETO132-HETO134 [7]: 46.7%; Percentage phytotoxicity 16 DAA HETO132-HETO134 [7]: 71.7%; Percentage phytotoxicity 24 DAA HETO132-HETO134 [7]: 43.3%
COc1cc(OC)n2nc(NS(=O)(=O)c3c(C(F)(F)F)ccnc3OC)nc2n1 [Pyroxsulam, pyroxsulam] | – | – | 261 | – | >41368 | <4 | >41368 | – | 6310 | pI50 WT (AHAS protein WT): 8.6; pI50 P197S [1]: 6.2; pI50 W574L [2]: <4; pI50 P197S & W574L (mixture) [4]: 4.8
CCCOc1nn(C(=O)[N-]S(=O)(=O)c2ccccc2C(=O)OC)c(=O)n1C.[Na+] [Propoxycarbazone] | – | – | 147 | – | 293 | – | >4641 | – | 200 | –
COC(=O)c1ccccc1S(=O)(=O)NC(=O)Nc1nc(C)nc(OC)n1 [Metsulfuron-methyl, metsulfuron-methyl] | – | – | 38 | – | 755 | – | >7547 | – | – | –
CCS(=O)(=O)c1cccnc1S(=O)(=O)NC(=O)Nc1nc(OC)cc(OC)n1 [Rimsulfuron, rimsulfuron] | 0.02 µM | 0.398 µM | 18 | 10 µM | 447 | <4 | >4466 | 2 µM | 63 | –
COc1cc(OC)nc(NC(=O)NS(=O)(=O)N(C)S(C)(=O)=O)n1 [Amidosulfuron, amidosulfuron] | 0.2 µM | > 100 µM | >488 | > 100 µM | >488 | <4 | >488 | > 100 µM | >501 | –
COC(=O)c1ccc(C(F)(F)F)nc1S(=O)(=O)NC(=O)Nc1nc(OC)cc(OC)n1 [Flupyrsulfuron-methyl] | – | – | – | – | – | – | >47863 | – | – | –
COc1cc(OC)n2nc(S(=O)(=O)Nc3c(Cl)ccc(C)c3Cl)nc2n1 [Metosulam, metosulam] | 0.00316 µM | 1.58 µM | 457 | 20 µM | 5754 | <4 | >28840 | 6.31 µM | 2512 | –
COC(=O)c1csc(C)c1S(=O)(=O)NC(=O)n1nc(OC)n(C)c1=O [Thiencarbazone-methyl, thiencarbazone-methyl] | – | – | 1173 | – | 1173 | – | >7399 | – | 1259 | –
COC(=O)c1sccc1S(=O)(=O)NC(=O)Nc1nc(C)nc(OC)n1 [Thifensulfuron-Methyl, thifensulfuron-methyl] | 0.0398 µM | 7.94 µM | 200 | 63.1 µM | 1585 | <4 | >2511 | 25.1 µM | 631 | –
